Legend:
Format in all cases: organism-based
[1] = Toxicity in male C57BL/6 mouse assessed as aspartate transaminase (AST) level in serum at 20 mg/kg, ip measured after 4 days; conditions: in vivo, 96 h, time 4 day
[2] = Toxicity in male C57BL/6 mouse assessed as aspartate transaminase (AST) level in serum at 20 to 40 mg/kg, po measured after 4 days; conditions: in vivo, 96 h, dose 20-40 mg/kg, time 4 day
[3] = Toxicity in male C57BL/6 mouse assessed as alanine transaminase (ALT) level in serum at 20 mg/kg, ip measured after 4 days; conditions: in vivo, 96 h, time 4 day
[4] = Toxicity in male C57BL/6 mouse assessed as total bile acid level in serum at 20 to 40 mg/kg, po measured after 4 days; conditions: in vivo, 96 h, dose 20-40 mg/kg, time 4 day
[5] = Toxicity in male C57BL/6 mouse assessed as total bile acid level in serum at 20 mg/kg, ip measured after 4 days; conditions: in vivo, 96 h, time 4 day

Measured: Activity

Cc1ccc(C)c(OCCCC(C)(C)C(=O)NCC(=O)c2ccc(O)cc2)c1
Non-Toxic: all assays above
